Laboratory results taken from ChEMBL document CHEMBL2321683, “Discovery of potent, selective and orally bioavailable imidazo[1,5-a]pyrazine derived ACK1 inhibitors” (Bioorg Med Chem Lett, 2013).

What was measured:
Activated CDC42 kinase 1 [1] = molecular target: T1, Activated CDC42 kinase 1 (Homo sapiens, UniProt Q07912)
Target sequence in this assay (Q07912 whole entry): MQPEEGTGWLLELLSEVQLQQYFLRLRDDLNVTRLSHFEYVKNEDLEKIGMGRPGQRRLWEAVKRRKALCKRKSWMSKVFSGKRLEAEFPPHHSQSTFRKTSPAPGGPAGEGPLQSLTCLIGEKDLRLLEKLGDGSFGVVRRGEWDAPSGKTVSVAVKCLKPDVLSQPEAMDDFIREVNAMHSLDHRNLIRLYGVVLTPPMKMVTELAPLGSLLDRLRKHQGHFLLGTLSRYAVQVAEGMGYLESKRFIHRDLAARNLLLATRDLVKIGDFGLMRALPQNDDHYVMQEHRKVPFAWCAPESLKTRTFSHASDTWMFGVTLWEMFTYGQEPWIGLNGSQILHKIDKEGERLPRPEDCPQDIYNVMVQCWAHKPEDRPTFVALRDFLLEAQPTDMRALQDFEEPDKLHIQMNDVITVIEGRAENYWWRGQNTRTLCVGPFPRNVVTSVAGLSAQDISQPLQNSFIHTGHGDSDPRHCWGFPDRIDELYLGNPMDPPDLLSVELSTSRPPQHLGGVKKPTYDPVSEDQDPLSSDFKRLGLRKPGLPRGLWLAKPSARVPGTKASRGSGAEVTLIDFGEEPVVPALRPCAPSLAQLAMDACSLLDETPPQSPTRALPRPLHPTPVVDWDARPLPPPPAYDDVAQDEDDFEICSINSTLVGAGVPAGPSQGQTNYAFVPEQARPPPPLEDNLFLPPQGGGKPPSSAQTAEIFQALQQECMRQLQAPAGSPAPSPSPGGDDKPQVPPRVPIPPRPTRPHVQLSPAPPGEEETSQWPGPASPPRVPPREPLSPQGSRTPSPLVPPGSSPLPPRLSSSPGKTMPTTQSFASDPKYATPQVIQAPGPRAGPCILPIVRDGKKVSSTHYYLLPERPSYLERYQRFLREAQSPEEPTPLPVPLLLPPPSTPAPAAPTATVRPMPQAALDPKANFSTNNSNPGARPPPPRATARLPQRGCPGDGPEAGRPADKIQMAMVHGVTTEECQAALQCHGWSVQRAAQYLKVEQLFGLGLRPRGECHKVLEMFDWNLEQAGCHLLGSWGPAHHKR

[2] = molecular target: Tyrosine-protein kinase Fgr (Homo sapiens) (UniProt P09769); test: Inhibition of FGR (unknown origin) at 1 uM
[3] = molecular target: Tyrosine-protein kinase Srms (Homo sapiens) (UniProt Q9H3Y6); test: Inhibition of SRMS (unknown origin) at 1 uM
[4] = Volume of distribution at steady state in mouse at 2 mg/kg, iv; assay type: ADME, organism-based; set-up: dose 2 mg/kg, route intravenous; settings: in vivo, read-out: Vdss
[5] = molecular target: Tyrosine-protein kinase Yes (Homo sapiens) (UniProt P07947); test: Inhibition of YES (unknown origin) at 1 uM
Cytochrome P450 3A4 = Cytochrome P450 3A4 (Homo sapiens, UniProt P08684); test: Inhibition of CYP3A4 (unknown origin); assay type: ADME
Cytochrome P450 1A2 = molecular target: T2, Cytochrome P450 1A2 (Homo sapiens, UniProt P05177); test: Inhibition of CYP1A2 (unknown origin); assay type: ADME
T2 sequence (P05177 whole entry): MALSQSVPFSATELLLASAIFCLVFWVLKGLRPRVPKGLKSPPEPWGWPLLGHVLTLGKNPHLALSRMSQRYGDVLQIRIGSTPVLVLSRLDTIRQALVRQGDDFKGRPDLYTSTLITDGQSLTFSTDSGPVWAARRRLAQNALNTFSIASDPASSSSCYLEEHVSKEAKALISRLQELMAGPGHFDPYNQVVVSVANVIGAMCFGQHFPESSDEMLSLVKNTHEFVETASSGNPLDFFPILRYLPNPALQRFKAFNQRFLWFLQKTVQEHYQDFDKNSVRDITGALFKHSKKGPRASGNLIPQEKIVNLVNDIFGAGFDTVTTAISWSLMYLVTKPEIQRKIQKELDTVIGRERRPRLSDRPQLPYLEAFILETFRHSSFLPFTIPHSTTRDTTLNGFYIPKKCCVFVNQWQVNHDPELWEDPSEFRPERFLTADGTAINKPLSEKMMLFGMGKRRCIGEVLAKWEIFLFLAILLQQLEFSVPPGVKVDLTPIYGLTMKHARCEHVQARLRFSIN

[6] = molecular target: Tyrosine-protein kinase FRK (Homo sapiens) (UniProt P42685); test: Inhibition of FRK (unknown origin) at 1 uM
[7] = molecular target: Tyrosine-protein kinase Fyn (Homo sapiens) (UniProt P06241); test: Inhibition of FYN (unknown origin) at 1 uM
[8] = Aqueous solubility of the compound at pH 7.4; assay type: physicochemical
[9] = Clearance in mouse at 2 mg/kg, iv; assay type: ADME, organism-based; set-up: dose 2 mg/kg, route intravenous; settings: in vivo
[10] = molecular target: Tyrosine-protein kinase Lyn (Homo sapiens) (UniProt P07948); test: Inhibition of LYNB (unknown origin) at 1 uM
[11] = (§1) Oral bioavailability in mouse at 20 mg/kg; assay type: ADME, organism-based; settings: in vivo
[12] = Permeability of the compound by PAMPA at pH 7.4; assay type: ADME; settings: read-out: permeability
[13] = molecular target: Proto-oncogene tyrosine-protein kinase Src (Homo sapiens) (UniProt P12931); test: Inhibition of SRC (unknown origin) at 1 uM
[14] = molecular target: Tyrosine-protein kinase Blk (Homo sapiens) (UniProt P51451); test: Inhibition of BLK (unknown origin) at 1 uM
[15] = molecular target: T3, Tyrosine-protein kinase Tec (Homo sapiens) (UniProt P42680); test: Inhibition of TEC (unknown origin) at 1 uM
T3 sequence (whole entry): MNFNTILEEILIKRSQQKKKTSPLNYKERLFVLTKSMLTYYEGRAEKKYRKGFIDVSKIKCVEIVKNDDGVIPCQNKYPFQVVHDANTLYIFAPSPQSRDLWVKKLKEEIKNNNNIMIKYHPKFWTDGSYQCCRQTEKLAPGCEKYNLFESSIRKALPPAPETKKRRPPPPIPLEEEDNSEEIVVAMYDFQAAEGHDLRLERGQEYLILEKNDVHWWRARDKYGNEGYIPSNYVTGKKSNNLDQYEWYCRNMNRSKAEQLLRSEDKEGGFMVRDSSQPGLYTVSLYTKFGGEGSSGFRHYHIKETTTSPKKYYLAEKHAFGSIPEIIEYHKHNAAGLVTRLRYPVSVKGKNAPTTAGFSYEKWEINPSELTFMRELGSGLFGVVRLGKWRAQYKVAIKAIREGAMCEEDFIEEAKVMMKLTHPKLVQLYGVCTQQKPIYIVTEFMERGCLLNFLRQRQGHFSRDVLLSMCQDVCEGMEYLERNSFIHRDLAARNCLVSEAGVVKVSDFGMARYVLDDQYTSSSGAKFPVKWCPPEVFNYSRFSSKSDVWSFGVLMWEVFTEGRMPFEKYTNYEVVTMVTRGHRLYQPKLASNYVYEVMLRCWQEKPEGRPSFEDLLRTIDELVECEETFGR

[16] = Cmax in mouse at 20 mg/kg, po; assay type: ADME, organism-based; set-up: dose 20 mg/kg, route oral; settings: in vivo
Cytochrome P450 2D6 = Cytochrome P450 2D6 (Homo sapiens, UniProt P10635); test: Inhibition of CYP2D6 (unknown origin); assay type: ADME
Cytochrome P450 2C9 = Cytochrome P450 2C9 (Homo sapiens, UniProt P11712); test: Inhibition of CYP2C9 (unknown origin); assay type: ADME
[17] = AUC in mouse at 20 mg/kg, po; assay type: ADME, organism-based; set-up: dose 20 mg/kg, route oral; settings: plasma
[18] = Half life in mouse at 20 mg/kg, po; assay type: ADME, organism-based; set-up: dose 20 mg/kg, route oral; settings: in vivo
[19] = Permeability of the compound by PAMPA at pH 5; assay type: ADME; settings: read-out: permeability
[20] = molecular target: Tyrosine-protein kinase HCK (Homo sapiens) (UniProt P08631); test: Inhibition of HCK (unknown origin) at 1 uM
[21] = molecular target: T4, Tyrosine-protein kinase TXK (Homo sapiens) (UniProt P42681); test: Inhibition of TXK (unknown origin) at 1 uM
T4 sequence (whole entry): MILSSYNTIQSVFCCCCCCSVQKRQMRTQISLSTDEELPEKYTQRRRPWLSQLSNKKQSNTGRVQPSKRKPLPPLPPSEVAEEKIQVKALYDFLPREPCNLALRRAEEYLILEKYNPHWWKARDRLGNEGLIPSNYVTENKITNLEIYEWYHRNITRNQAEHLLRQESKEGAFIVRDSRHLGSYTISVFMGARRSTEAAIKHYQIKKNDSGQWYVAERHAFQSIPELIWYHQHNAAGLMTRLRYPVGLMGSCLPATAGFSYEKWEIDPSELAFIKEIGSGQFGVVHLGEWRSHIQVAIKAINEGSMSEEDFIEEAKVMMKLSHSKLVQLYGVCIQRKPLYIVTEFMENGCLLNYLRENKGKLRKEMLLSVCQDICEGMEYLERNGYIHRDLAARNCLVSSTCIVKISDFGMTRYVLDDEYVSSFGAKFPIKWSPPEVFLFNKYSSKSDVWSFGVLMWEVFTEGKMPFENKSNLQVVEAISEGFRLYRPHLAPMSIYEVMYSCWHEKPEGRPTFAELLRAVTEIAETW

[22] = molecular target: Tyrosine-protein kinase Lck (Homo sapiens) (UniProt P06239); test: Inhibition of LCK (unknown origin) at 1 uM
Activated CDC42 kinase 1 [23] = molecular target: T1, Activated CDC42 kinase 1; settings: 1 uM
Target sequence in this assay (Q07912 whole entry, looked up): as the sequence (Q07912 whole entry) above

Activated CDC42 kinase 1 [24] = molecular target: T1, Activated CDC42 kinase 1; remark: listed apart in the source
Target sequence in this assay (Q07912 whole entry): as the sequence (Q07912 whole entry) above

Mus musculus = test: as §1; assay type: ADME, organism-based; settings: in vivo

Tyrosine-protein kinase Yes (Homo sapiens), sequence (P07947 2-543 limits assumed): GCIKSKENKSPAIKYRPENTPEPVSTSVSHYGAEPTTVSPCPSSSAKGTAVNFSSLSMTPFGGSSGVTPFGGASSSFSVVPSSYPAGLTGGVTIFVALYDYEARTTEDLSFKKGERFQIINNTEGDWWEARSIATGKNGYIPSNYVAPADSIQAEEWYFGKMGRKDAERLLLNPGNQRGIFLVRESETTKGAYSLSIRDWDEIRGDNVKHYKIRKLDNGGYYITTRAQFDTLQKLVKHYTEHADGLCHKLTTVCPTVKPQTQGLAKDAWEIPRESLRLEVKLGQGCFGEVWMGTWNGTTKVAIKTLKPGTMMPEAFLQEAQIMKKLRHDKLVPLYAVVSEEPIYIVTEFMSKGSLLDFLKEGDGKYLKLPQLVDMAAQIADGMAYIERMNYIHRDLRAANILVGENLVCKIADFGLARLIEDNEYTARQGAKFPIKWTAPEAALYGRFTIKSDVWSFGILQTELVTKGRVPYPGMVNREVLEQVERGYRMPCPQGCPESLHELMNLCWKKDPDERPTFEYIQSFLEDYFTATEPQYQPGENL
Tyrosine-protein kinase Lyn (Homo sapiens), sequence (P07948 2-512 limits assumed): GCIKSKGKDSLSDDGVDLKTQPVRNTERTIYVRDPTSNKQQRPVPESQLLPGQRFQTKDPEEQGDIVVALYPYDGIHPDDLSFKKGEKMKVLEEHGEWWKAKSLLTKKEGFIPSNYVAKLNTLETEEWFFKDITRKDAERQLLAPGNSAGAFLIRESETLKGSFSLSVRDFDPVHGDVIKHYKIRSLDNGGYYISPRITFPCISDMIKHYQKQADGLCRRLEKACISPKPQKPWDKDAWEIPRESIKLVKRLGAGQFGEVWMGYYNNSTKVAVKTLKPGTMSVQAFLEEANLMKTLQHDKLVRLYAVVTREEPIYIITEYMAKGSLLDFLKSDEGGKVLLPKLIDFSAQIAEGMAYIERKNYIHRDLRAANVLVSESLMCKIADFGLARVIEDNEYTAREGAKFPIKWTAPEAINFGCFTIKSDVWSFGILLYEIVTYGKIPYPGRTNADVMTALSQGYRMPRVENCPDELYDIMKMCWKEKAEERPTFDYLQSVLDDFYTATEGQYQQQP
Tyrosine-protein kinase Srms (Homo sapiens), sequence (Q9H3Y6 whole entry): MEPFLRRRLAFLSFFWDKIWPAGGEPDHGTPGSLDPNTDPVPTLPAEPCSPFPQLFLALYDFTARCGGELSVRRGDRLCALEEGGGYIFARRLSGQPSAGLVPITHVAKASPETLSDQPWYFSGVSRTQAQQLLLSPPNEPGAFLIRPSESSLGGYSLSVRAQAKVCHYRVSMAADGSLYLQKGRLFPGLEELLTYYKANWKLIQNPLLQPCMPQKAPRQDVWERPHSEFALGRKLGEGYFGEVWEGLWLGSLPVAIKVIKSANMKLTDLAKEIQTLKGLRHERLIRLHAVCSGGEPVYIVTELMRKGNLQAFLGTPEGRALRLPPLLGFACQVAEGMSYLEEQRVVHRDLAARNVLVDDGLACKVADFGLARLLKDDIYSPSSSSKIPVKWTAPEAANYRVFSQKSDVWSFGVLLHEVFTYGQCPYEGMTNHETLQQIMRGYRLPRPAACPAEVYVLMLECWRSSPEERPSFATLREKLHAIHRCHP
Tyrosine-protein kinase Lck (Homo sapiens), sequence (P06239 2-509 limits assumed): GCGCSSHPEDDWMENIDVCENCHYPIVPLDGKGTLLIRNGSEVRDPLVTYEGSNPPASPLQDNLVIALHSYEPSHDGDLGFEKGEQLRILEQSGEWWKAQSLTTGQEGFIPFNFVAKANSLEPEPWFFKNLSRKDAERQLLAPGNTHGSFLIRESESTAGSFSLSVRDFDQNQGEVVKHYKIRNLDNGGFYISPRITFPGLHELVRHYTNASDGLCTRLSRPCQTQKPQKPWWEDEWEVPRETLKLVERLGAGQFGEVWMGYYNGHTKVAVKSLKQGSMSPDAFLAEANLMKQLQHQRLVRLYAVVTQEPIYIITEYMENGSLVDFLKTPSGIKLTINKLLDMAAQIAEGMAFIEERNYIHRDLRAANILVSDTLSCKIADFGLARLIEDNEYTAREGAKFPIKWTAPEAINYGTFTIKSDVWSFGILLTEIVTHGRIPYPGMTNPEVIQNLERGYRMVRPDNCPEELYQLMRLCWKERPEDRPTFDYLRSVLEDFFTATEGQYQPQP
Tyrosine-protein kinase Blk (Homo sapiens), sequence (P51451 2-505 limits assumed): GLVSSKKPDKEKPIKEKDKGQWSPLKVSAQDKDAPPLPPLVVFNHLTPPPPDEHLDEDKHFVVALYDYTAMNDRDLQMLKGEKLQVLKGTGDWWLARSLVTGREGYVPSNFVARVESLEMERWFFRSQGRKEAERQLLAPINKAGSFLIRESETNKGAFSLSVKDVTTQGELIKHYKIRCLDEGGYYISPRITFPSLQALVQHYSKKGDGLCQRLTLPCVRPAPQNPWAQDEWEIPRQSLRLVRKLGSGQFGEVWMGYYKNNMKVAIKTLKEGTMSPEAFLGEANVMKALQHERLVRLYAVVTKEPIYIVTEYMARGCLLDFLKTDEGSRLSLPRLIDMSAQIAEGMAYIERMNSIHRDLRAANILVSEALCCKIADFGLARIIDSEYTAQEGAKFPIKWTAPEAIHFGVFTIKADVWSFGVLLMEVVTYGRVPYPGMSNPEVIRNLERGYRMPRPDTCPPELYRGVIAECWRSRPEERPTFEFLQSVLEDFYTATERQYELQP
Cytochrome P450 2D6, sequence (P10635 whole entry): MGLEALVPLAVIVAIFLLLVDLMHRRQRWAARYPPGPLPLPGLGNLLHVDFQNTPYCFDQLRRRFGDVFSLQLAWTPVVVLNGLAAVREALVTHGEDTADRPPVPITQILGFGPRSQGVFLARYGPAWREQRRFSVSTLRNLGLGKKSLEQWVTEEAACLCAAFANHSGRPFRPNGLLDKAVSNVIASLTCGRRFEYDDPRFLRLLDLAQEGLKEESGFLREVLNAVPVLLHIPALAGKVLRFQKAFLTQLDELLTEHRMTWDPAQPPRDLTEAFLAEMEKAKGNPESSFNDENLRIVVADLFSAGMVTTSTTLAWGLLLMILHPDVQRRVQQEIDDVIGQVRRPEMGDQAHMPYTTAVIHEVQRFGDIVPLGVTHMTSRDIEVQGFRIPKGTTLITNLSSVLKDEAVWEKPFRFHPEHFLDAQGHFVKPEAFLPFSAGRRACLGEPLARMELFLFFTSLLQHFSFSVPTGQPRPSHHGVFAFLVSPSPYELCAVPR
Cytochrome P450 3A4, sequence (P08684 whole entry): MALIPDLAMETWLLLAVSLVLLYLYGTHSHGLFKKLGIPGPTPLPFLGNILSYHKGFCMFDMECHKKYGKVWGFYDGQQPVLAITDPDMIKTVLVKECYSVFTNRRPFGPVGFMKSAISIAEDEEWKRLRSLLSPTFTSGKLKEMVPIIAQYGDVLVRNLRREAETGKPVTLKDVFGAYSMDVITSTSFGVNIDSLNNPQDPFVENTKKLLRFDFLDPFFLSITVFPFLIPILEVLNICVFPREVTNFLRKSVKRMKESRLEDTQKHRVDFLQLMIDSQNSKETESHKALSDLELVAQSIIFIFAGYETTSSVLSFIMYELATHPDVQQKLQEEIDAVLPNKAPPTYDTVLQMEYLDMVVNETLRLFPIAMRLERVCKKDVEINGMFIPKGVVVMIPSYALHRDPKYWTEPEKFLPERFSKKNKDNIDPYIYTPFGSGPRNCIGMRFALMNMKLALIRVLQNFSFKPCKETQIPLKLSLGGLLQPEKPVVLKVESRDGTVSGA

| Compound | IC50 (Activated CDC42 kinase 1 [1]) | Vd [4] | clearance [9] | bioavailability [11] | Cmax [16] | AUC [17] | half-life [18] | other results |
| --- | --- | --- | --- | --- | --- | --- | --- | --- |
| c1ccc(-c2c(-c3ccc(OCCN4CCCC4)cc3)[nH]c3ncnc(NCC4SCCS4)c23)cc1 | 10 nM | – | – | – | – | – | – | – |
| c1ccc(-c2oc3ncnc(NC[C@@H]4CCCO4)c3c2-c2ccccc2)cc1 | 620 nM | – | – | – | – | – | – | – |
| COC(C)(C)CCn1nc(Nc2c(C)cccc2C)c2cnc(Nc3ccc(OCCN4CCCC4)c(F)c3)nc21 | 20 nM | – | – | – | – | – | – | – |
| COc1cc(Oc2ccccc2)ccc1-c1nc([C@H]2C[C@@](C)(O)C2)n2ccnc(N)c12 | – | 1.8 L/kg | 39 mL/min/kg | 98% | 5.9 µM | 8480 ng·h/mL | 3.8 h | inhibition [2]: > 80%; inhibition [3]: > 80%; inhibition [5]: > 80%; IC50 (Cytochrome P450 3A4): > 20000 nM; IC50 (Cytochrome P450 1A2): > 20000 nM; inhibition [6]: > 80%; inhibition [7]: > 80%; solubility [8]: > 100 µM; inhibition [10]: > 80%; Papp [12]: 591 ×10⁻⁶ cm/s; inhibition [13]: > 80%; inhibition [14]: > 80%; inhibition [15]: > 80%; IC50 (Cytochrome P450 2D6): > 20000 nM; IC50 (Cytochrome P450 2C9): > 20000 nM; Papp [19]: 280 ×10⁻⁶ cm/s; inhibition [20]: > 80%; inhibition [21]: > 80%; inhibition [22]: > 80%; inhibition (Activated CDC42 kinase 1 [23]): 100% |
| Nc1nccn2c(C3CCC3)nc(-c3ccc(Oc4ccccc4)cc3)c12 | – | 9 L/kg | 135 mL/min/kg | 50% | 0.9 µM | 1240 ng·h/mL | 5.5 h | – |
| Nc1nccn2c(C3CCC3)nc(-c3ccc(C(O)c4ccccc4)cc3)c12 (stereo not given) | – | – | – | – | – | – | – | IC50 (Activated CDC42 kinase 1 [24]): 280 nM |
| C[C@]1(O)C[C@@H](c2nc(-c3ccc(Oc4ccccc4)cc3)c3c(N)nccn32)C1 | – | 1.7 L/kg | 62 mL/min/kg | 87% | 11.2 µM | 4680 ng·h/mL | 4.9 h | – |
| CC(O)(c1ccccc1)c1ccc(-c2nc([C@H]3C[C@@](C)(O)C3)n3ccnc(N)c23)cc1 (mixture of isomers) | – | 3.3 L/kg | 89 mL/min/kg | 105% | 4.6 µM | 3940 ng·h/mL | 2.6 h | – |
| Nc1nccn2c(C3CCC3)nc(-c3ccn(Cc4ccccc4)c(=O)c3)c12 | – | – | – | – | – | – | – | IC50 (Activated CDC42 kinase 1 [24]): > 10000 nM |
| C[C@]1(O)C[C@@H](c2nc(-c3ccc(C(F)(F)c4ccccc4)cc3)c3c(N)nccn32)C1 | – | 1.7 L/kg | 63 mL/min/kg | – | 5 µM | 8540 ng·h/mL | 4.3 h | F (Mus musculus): 160% |
